The values that follow come from patent US4076821A (priority 1976, dated 1978).

By ED50 is commonly meant the dose at which the effect has come halfway, by size or by number of responders. By LD50 is commonly meant the dose expected to kill half of the subjects tested.

One series in a line: animal or person. Type of series: in vivo. Conditions: Rattus norvegicus, po, read-out: ED50, anti-apomorphine effect.
The nature of another series: in vivo. The settings on record: mouse, po.

Regarding `O=C(CCCN1CCC(O)(c2ccc(Cl)cc2)CC1)c1ccc(F)cc1` [Haloperidol, 1-[3-(p-fluorobenzoyl)propyl]-4-(p-chlorophenyl)-4-piperidinol, reference compound], in “animal or person”, the ED50 was 0.5 mg/kg. This compound also yielded an LD50 in “in vivo” of over 100 mg/kg.

Consider `O=c1[nH]c2ccccc2n1C1CCN(CCCC(c2ccc(F)cc2)c2ccc(F)cc2)CC1` [Pimozide, 1-[1-(4,4-bis(p-fluorophenyl)butyl)-4-piperidyl]-2-benzimidazolinone, reference compound], for which the ED50 in “animal or person” was determined as 0.25 mg/kg. The LD50 in the series “in vivo” is over 1000 mg/kg. As to `Cl.OC1(c2ccc(Cl)c(C(F)(F)F)c2)CCN(C2CCC(c3ccc(F)cc3)(c3ccc(F)cc3)CC2)CC1` [Test Compound A, 1-[4,4-bis(p-fluorophenyl)cyclohexyl]-4-(4-chloro-3-trifluoromethylphenyl)-4-piperidinol hydrochloride], the ED50 in the series “animal or person” is 2.46 mg/kg. Besides, the median lethal dose (LD50) in the series “in vivo” was at least 464 mg/kg. Turning to `O=C1NCN(c2ccc(F)cc2)C12CCN(C1CCC(c3ccc(F)cc3)(c3ccc(F)cc3)CC1)CC2` [Test Compound B, 8-[4,4-bis(p-fluorophenyl)cyclohexyl]-1-(p-fluorophenyl)-1,3,8-triazaspiro[4.5]decan-4-one], the ED50 in the series “animal or person” came to 0.1 mg/kg. In the case of `O=C1NCN(c2ccc(Cl)cc2)C12CCN(C1CCC(c3ccc(F)cc3)(c3ccc(F)cc3)CC1)CC2` [Test Compound E, 8-[4,4-bis(p-fluorophenyl)cyclohexyl]-1-(p-chlorophenyl)-1,3,8-triazaspiro[4.5]decan-4-one], the ED50 in the series “animal or person” was 0.28 mg/kg. Further, the LD50 in the series “in vivo” was at least 464 mg/kg.
